Experimental data reported in patent US9493446B2, “Orexin receptor antagonists which are [ortho bi-(hetero-)aryl]-[2-(meta bi-(hetero-)aryl)-pyrrolidin-1-yl]-methanone derivatives” (Actelion Pharmaceuticals Ltd, priority 2012, dated 2016).
Like-named read-outs stand apart in the source and are kept apart here.

Legend:
[1] = molecular target: orexin-1 (Homo sapiens (Human), UniProt O43613); assay: Intracellular calcium measurement (FLIPR), CHO cells expressing human orexin-1 receptor, 3 nM orexin-A; assay type: cell-based; details: read-out: IC50 OX1
orexin-1, sequence (O43613 whole entry): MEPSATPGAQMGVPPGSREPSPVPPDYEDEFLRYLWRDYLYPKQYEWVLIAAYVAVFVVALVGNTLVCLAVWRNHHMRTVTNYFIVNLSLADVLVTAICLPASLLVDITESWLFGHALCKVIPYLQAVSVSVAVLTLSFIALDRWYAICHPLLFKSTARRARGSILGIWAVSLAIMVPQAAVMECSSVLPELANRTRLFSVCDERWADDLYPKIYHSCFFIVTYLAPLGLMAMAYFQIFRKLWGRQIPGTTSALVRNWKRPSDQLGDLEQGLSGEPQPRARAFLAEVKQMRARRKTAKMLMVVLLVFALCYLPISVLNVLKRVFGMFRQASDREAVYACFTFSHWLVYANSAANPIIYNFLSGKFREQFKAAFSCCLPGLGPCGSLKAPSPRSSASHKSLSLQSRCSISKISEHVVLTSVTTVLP
In short: (§1)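 CHO cells stably expressing each receptor were loaded with 3 μM fluo-4 AM plus 5 mM probenecid for 50 min at 37 °C, then equilibrated 30 min at rt.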

[2] = molecular target: human orexin-2 receptor (Homo sapiens (Human), UniProt O43614); assay: Intracellular calcium measurement (FLIPR), CHO cells expressing human orexin-2 receptor, 3 nM orexin-A; assay type: cell-based; details: read-out: IC50 OX2
human orexin-2 receptor, sequence (O43614 whole entry): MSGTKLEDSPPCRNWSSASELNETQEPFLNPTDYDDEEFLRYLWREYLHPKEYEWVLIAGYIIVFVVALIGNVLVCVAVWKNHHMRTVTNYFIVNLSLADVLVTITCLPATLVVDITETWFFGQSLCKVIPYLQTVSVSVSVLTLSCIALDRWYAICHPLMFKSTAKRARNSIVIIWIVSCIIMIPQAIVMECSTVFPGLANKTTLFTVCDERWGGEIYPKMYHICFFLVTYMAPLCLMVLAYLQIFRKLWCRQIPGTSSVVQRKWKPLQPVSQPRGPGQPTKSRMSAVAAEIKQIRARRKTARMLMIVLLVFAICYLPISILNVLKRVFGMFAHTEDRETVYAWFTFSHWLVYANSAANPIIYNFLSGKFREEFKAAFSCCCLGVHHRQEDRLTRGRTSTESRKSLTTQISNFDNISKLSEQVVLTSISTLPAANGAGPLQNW
In short: as §1

[3] = Measurement of brain and systemic concentration after oral administration; assay type: in vivo; details: rat, 3 h after oral administration (100 mg/kg), n=3, male wistar rats;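 on concentration in plasma [P]: unit ng/mL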
Protocol: Measurement of Brain and Systemic Concentration after Oral Administration:
In order to assess brain penetration, the concentration of the compound is measured in plasma ([P]), and brain ([B]), sampled 3 h (or at different time points) following oral administration (e.g. 100 mg/kg) to male wistar rats. The compounds are formulated e.g. in 100% PEG 400. Samples are collected in the same animal at the same time point (+/−5 min). Blood is sampled from the vena cava caudalis into containers with EDTA as anticoagulant and centrifuged to yield plasma. Brain is sampled after cardiac perfusion of 10 mL NaCl 0.9% and homogenized into one volume of cold phosphate buffer (pH 7.4). All samples are extracted with MeOH and analyzed by LC-MS/MS. Concentrations are determined with the help of calibration curves.

[4] = test system: Wistar rats; assay: Sleep effects: EEG, EMG and behavioural indices of alertness by radiotelemetry; assay type: in vivo; details: effects analyzed over 12 hours, compared to vehicle controls
Protocol: Sleep Effects: EEG, EMG and Behavioural Indices of Alertness Recorded by Radiotelemetry In Vivo in Wistar Rats.
Electroencephalography (EEG) and Electromyography (EMG) signals were measured by telemetry using TL11M2-F20-EET miniature radiotelemetric implants (Data Science Int.) with two pairs of differential leads.
Surgical implantation was performed under general anesthesia with Ketamin/Xylazin, for cranial placement of one differential pair of EEG electrodes and one pair of EMG leads inserted in either side of the muscles of the neck. After surgery, rats recovered in a thermoregulated chamber and received analgesic treatment with subcutaneous buprenorphine twice a day for 2 d. They were then housed individually and allowed to recover for a minimum of 2 weeks. Thereafter, rats—in their home cage—were placed in a ventilated sound-attenuating box, on a 12-h light/12-h dark cycle, for acclimatization before continuous EEG/EMG recordings started. The telemetric technology that we used in this study allows accurate and stress-free acquisition of biosignals in rats placed in their familiar home cage environment, with no recording leads restricting their movements. Variables analyzed included four different stages of vigilance and sleep, spontaneous activity in the home cage and body temperature. Sleep and wake stages were evaluated using a rodent scoring software (Somnologica Science) directly processing electrical biosignals on 10 s contiguous epochs. The scoring is based on frequency estimation for EEG and amplitude discrimination for EMG and locomotor activity. Using these measurements, the software determines the probability that all components within each epoch best represent active waking (AW), quiet waking (QW), non-REM-sleep (NREM) or REM-sleep (REM). The percentage of total time spent in AW, QW, NREM- and REM-sleep was calculated per 12 h light or dark period. The latency to the onset of the first significant NREM- and REM-sleep episodes and the number and duration of those episodes were also calculated. AW, QW, NREM- and REM-sleep, home cage activity and body temperature were measured at baseline for at least one total circadian cycle (12 h-night, 12 h-day) before a test compound was administered. […] All variables were subsequently recorded for 12 h following administration of the orexin receptor antagonist.

[5] = CHO cells expressing human orexin-1 receptor, FLIPR, 3 nM orexin-A, geometric mean if determined several times
[6] = CHO cells expressing human orexin-2 receptor, FLIPR, 3 nM orexin-A, geometric mean if determined several times
[7] = brain, read-out: concentration in brain [B]
[8] = plasma, read-out: concentration in plasma [P]

Row | Compound | IC50 [1, 5] [µM] | IC50 [2, 6] [µM] | also measured
1 | Cc1cc(C(=O)N2CCC[C@H]2c2nc(-c3cccc(Cl)c3C)no2)c(-n2nccn2)cc1C [Example 95, {(S)-2-[3-(3-Chloro-2-methyl-phenyl)-[1,2,4]oxadiazol-5-yl]-pyrrolidin-1-yl}-(4,5-dimethyl-2-[1,2,3]triazol-2-yl-phenyl)-methanone] | 0.013 | 0.003 | concentration at 3 h [3, 7]: 483 ng/g; concentration at 3 h [3, 8]: 0.309 µg/mL; effect on NREM sleep ([4]; 100 mg/kg po): +11.2%; effect on REM sleep ([4]; 100 mg/kg po): +7.8%; effect on active wake ([4]; 100 mg/kg po): −7.3%; effect on home cage activity ([4]; 100 mg/kg po): −20.3%
2 | COc1cc(C(=O)N2CCC[C@H]2c2nc(-c3ccccc3OC(F)(F)F)no2)c(-n2nccn2)cc1C [Example 154, (5-Methoxy-4-methyl-2-[1,2,3]triazol-2-yl-phenyl)-{(S)-2-[3-(2-trifluoromethoxy-phenyl)-[1,2,4]oxadiazol-5-yl]-pyrrolidin-1-yl}-methanone] | 0.03 | 0.002 | concentration at 3 h [3, 7]: 3250 ng/g; concentration at 3 h [3, 8]: 2.24 µg/mL; effect on NREM sleep ([4]; 100 mg/kg po): +7.3%; effect on REM sleep ([4]; 100 mg/kg po): +0.9%; effect on active wake ([4]; 100 mg/kg po): −13.9%; effect on home cage activity ([4]; 100 mg/kg po): −26.8%
3 | COc1cc(C(=O)N2CCC[C@H]2c2noc(-c3ccccc3OC(F)(F)F)n2)c(-n2nccn2)cc1C [Example 308, (5-Methoxy-4-methyl-2-[1,2,3]triazol-2-yl-phenyl)-{(S)-2-[5-(2-trifluoromethoxy-phenyl)-[1,2,4]oxadiazol-3-yl]-pyrrolidin-1-yl}-methanone] | 0.022 | 0.004 | concentration at 3 h [3, 7]: 1580 ng/g; concentration at 3 h [3, 8]: 1.76 µg/mL; effect on NREM sleep ([4]; 100 mg/kg po): +14.3%; effect on REM sleep ([4]; 100 mg/kg po): +35.2%; effect on active wake ([4]; 100 mg/kg po): −24.0%; effect on home cage activity ([4]; 100 mg/kg po): −41.4%
4 | Cc1ccc(C(=O)N2CCC[C@H]2c2nnc(-c3ccccc3OC(F)(F)F)[nH]2)c(-n2nccn2)c1 [Example 502, (4-Methyl-2-[1,2,3]triazol-2-yl-phenyl)-{(S)-2-[5-(2-trifluoromethoxy-phenyl)-4H-[1,2,4]triazol-3-yl]-pyrrolidin-1-yl}-methanone] |  |  | concentration at 3 h [3, 7]: 1640 ng/g; concentration at 3 h [3, 8]: 2.77 µg/mL; effect on NREM sleep ([4]; 100 mg/kg po): +24.2%; effect on REM sleep ([4]; 100 mg/kg po): +47.0%; effect on active wake ([4]; 100 mg/kg po): −19.4%; effect on home cage activity ([4]; 100 mg/kg po): −47.1%
5 | C[C@@]1(c2nnc(-c3ccccc3OC(F)(F)F)[nH]2)CCCN1C(=O)c1ccc(Cl)cc1-n1nccn1 [Example 544, (4-Chloro-2-[1,2,3]triazol-2-yl-phenyl)-{(S)-2-methyl-2-[5-(2-trifluoromethoxy-phenyl)-4H-[1,2,4]triazol-3-yl]-pyrrolidin-1-yl}-methanone] | 0.005 | 0.006 | concentration at 3 h [3, 7]: 1120 ng/g; concentration at 3 h [3, 8]: 1.07 µg/mL; effect on NREM sleep ([4]; 30 mg/kg po): +19.4%; effect on REM sleep ([4]; 30 mg/kg po): +5.6%; effect on active wake ([4]; 30 mg/kg po): −9.6%; effect on home cage activity ([4]; 30 mg/kg po): −18.5%
6 | Cc1ccc(-c2ccccc2)c(C(=O)N2CCC[C@@]2(C)c2nnc(-c3ccccc3OC(F)(F)F)[nH]2)c1 [compound 549, (4-Methyl-biphenyl-2-yl)-{(S)-2-methyl-2-[5-(2-trifluoromethoxy-phenyl)-4H-[1,2,4]triazol-3-yl]-pyrrolidin-1-yl}-methanone] | 0.031 | 0.064 | 
7 | Cc1ccc(-n2nccn2)c(C(=O)N2CCC[C@@]2(C)c2nnc(-c3cccc(Cl)c3C)[nH]2)c1 [compound 550] | 0.272 | 0.178 | 
8 | Cc1ccc(C(=O)N2CCC[C@@]2(C)c2nnc(-c3cccc(Cl)c3C)[nH]2)c(-n2nccn2)c1 [compound 551] | 0.043 | 0.024 | 
9 | Cc1cc(-n2nccn2)c(C(=O)N2CCC[C@@]2(C)c2nnc(-c3cccc(Cl)c3C)[nH]2)cc1Cl [compound 552] | 0.009 | 0.007 | 
10 | Cc1cc(C(=O)N2CCC[C@@]2(C)c2nnc(-c3cccc(Cl)c3C)[nH]2)c(-n2nccn2)cc1C [compound 553] | 0.014 | 0.006 | 
11 | Cc1c(Cl)cccc1-c1nnc([C@]2(C)CCCN2C(=O)c2cc(Cl)ccc2-n2nccn2)[nH]1 [compound 554] | 0.12 |  | IC50 [2]: 0.034 µM
12 | Cc1c(Cl)cccc1-c1nnc([C@]2(C)CCCN2C(=O)c2ccc(Cl)cc2-n2nccn2)[nH]1 [compound 555] | 0.027 | 0.011 | 
13 | Cc1ccc(-c2ccccc2)c(C(=O)N2CCC[C@@]2(C)c2nnc(-c3cccc(Cl)c3C)[nH]2)c1 [compound 556] | 0.87 | 0.857 | 
14 | Cc1ccc(C(=O)N2CCC[C@@]2(C)c2nnc(-c3cccc(Cl)c3C)[nH]2)c(-c2ccccc2)c1 [compound 557] | 0.292 | 0.224 | 
15 | (4,5-Dimethyl-2-[1,2,3]triazol-2-yl-phenyl)-{(S)-2-[5-(2-trifluoromethoxy-phenyl)-[1,2,4]oxadiazol-3-yl]-pyrrolidin-1-yl}-methanone [Example 304] | 0.004 | 0.003 | 
16 | Furan-3-yl-[(S)-2-(3-o-tolyl-[1,2,4]oxadiazol-5-yl)-pyrrolidin-1-yl]-methanone [Reference compound 6, reference compound] |  | 0.027 | IC50 [1]: 0.021 µM
17 | Furan-3-yl-[(S)-2-(3-phenyl-[1,2,4]oxadiazol-5-yl)-pyrrolidin-1-yl]-methanone [Reference compound 4, reference compound] |  | 0.897 | IC50 [1]: > 5.04 µM
18 | Thiophen-2-yl-[(S)-2-(3-o-tolyl-[1,2,4]oxadiazol-5-yl)-pyrrolidin-1-yl]-methanone [Reference compound 3, reference compound] | 0.182 |  | IC50 [2]: 0.034 µM
19 | [3-(2-Chloro-phenyl)-5-methyl-isoxazol-4-yl]-{(S)-2-[3-(2-trifluoromethoxy-phenyl)-[1,2,4]oxadiazol-5-yl]-pyrrolidin-1-yl}-methanone [Reference compound 10, reference compound] | 1.04 | 0.15 | 
20 | {(S)-2-[3-(3-Chloro-phenyl)-[1,2,4]oxadiazol-5-yl]-pyrrolidin-1-yl}-furan-3-yl-methanone [Reference compound 5, reference compound] | 0.403 | 0.554 | 
21 | {(S)-2-[3-(3-Chloro-phenyl)-[1,2,4]oxadiazol-5-yl]-pyrrolidin-1-yl}-thiophen-2-yl-methanone [Reference compound 2, reference compound] | 0.253 | 0.041 | 
22 | {(S)-2-[5-(3-Chloro-2-methyl-phenyl)-[1,2,4]oxadiazol-3-yl]-pyrrolidin-1-yl}-[3-(2-chloro-phenyl)-5-methyl-isoxazol-4-yl]-methanone [Reference compound 8, reference compound] | 0.156 | 0.074 | 
23 | {(S)-2-[5-(3-Chloro-2-methyl-phenyl)-[1,3,4]oxadiazol-2-yl]-pyrrolidin-1-yl}-[3-(2-chloro-phenyl)-5-methyl-isoxazol-4-yl]-methanone [Reference compound 9, reference compound] |  | 0.242 | IC50 [1]: 0.853 µM
